Test system: not listed separately
Assay: in vivo
Settings: rat, po
Description: (§1) This oral screen is designated as phase VI.

Compound	TD50	selectivity ratio
COC(=O)C1C(=O)C=C(NCc2ccc(F)cc2)CC1C (stereo not shown) [Compound 21]	> 230 mg/kg	4.7

Same assay, conditions: rat, po, 50 mg/kg

Compound	Tox, animals toxic/tested
COC(=O)C1C(=O)C=C(NCc2ccc(F)cc2)CC1C (stereo not shown) [Compound 21]	0/4
COC(=O)C1C(=O)C=C(NCCc2ccccc2)CC1C (stereo not shown) [Compound 109]	0/4

Test system: Subcutaneous Pentylenetetrazol seizure
Assay: sc Met subcutaneous pentylenetetrazol (Metrazol) seizure test, mice
Assay type: in vivo
Settings: Mus musculus, sc, 0.5 h, 100 mg/kg, 30 min; read-out: scMet, animals protected/tested (converted)

Compound	responders at 100 mg/kg
COC(=O)C1C(=O)C=C(NCCc2ccccc2)CC1C (stereo not shown) [Compound 109]	0%

Same assay, conditions: Mus musculus, sc, 0.5 h, 300 mg/kg, 30 min; read-out: scMet, animals protected/tested (converted)

Compound	responders at 300 mg/kg
COC(=O)C1C(=O)C=C(NCc2ccc(F)cc2)CC1C (stereo not shown) [Compound 21]	0%
COC(=O)C1C(=O)C=C(NCCc2ccccc2)CC1C (stereo not shown) [Compound 109]	0%

Same assay, conditions: Mus musculus, sc, 4 h, 100 mg/kg, 4 h; read-out: scMet, animals protected/tested (converted)

Compound	responders at 100 mg/kg
COC(=O)C1C(=O)C=C(NCCc2ccccc2)CC1C (stereo not shown) [Compound 109]	0%

Same assay, conditions: Mus musculus, sc, 4 h, 300 mg/kg, 4 h; read-out: scMet, animals protected/tested (converted)

Compound	responders at 300 mg/kg
COC(=O)C1C(=O)C=C(NCc2ccc(F)cc2)CC1C (stereo not shown) [Compound 21]	0%
COC(=O)C1C(=O)C=C(NCCc2ccccc2)CC1C (stereo not shown) [Compound 109]	0%

Test system: seizures
Assay: Anticonvulsant evaluation (ASP phase I / overall)
Assay type: in vivo, mice
Settings: Mus musculus, ip; Phase I; read-out: ASP Classification
Protocol: The first phase of the ADD Program involved performing tests on male Carworth Farms #1 mice. […] Three tests were performed:
(§2) Maximal electroshock seizures are elicited with a 60-cycle alternating current of 50 mA intensity (5-7 times that necessary to elicit minimal electroshock seizures) delivered via corneal electrodes for 0.2 seconds. A drop of 0.9% saline is instilled in the eye prior to application of the electrodes in order to […].
The animal is observed for 30 minutes.

Compound	minimal effective dose
COC(=O)C1C(=O)C=C(NCc2ccc(F)cc2)CC1C (stereo not shown) [Compound 21]	> 100 mg/kg
COC(=O)C1C(=O)C=C(NCCc2ccccc2)CC1C (stereo not shown) [Compound 109]	< 100 mg/kg

Same assay, conditions: substituted benzylamines

Compound	activity compared with 12
COC(=O)C1C(=O)C=C(NCc2ccc(F)cc2)CC1C (stereo not shown) [Compound 21]	only a slight modification in activity

Test system: Maximal electroshock seizures
Assay: Phase VI oral MES test, rats
Assay type: in vivo
Settings: Phase VI, oral, rat
Description: as §2, §1

Compound	ED50
COC(=O)C1C(=O)C=C(NCc2ccc(F)cc2)CC1C (stereo not shown) [Compound 21]	49.3 mg/kg

Same assay, conditions: Rattus norvegicus, 0.5 h; oral, 50 mg/kg, 0.50 h; read-out: MES, animals protected/tested (converted)

Compound	responders at 50 mg/kg
COC(=O)C1C(=O)C=C(NCc2ccc(F)cc2)CC1C (stereo not shown) [Compound 21]	50%
COC(=O)C1C(=O)C=C(NCCc2ccccc2)CC1C (stereo not shown) [Compound 109]	50%

Same assay, conditions: Rattus norvegicus; oral, 50 mg/kg, 0.25 h; read-out: MES, animals protected/tested (converted)

Compound	responders at 50 mg/kg
COC(=O)C1C(=O)C=C(NCc2ccc(F)cc2)CC1C (stereo not shown) [Compound 21]	50%
COC(=O)C1C(=O)C=C(NCCc2ccccc2)CC1C (stereo not shown) [Compound 109]	100%

Same assay, conditions: Rattus norvegicus; oral, 50 mg/kg, 1.00 h; read-out: MES, animals protected/tested (converted)

Compound	responders at 50 mg/kg
COC(=O)C1C(=O)C=C(NCc2ccc(F)cc2)CC1C (stereo not shown) [Compound 21]	25%
COC(=O)C1C(=O)C=C(NCCc2ccccc2)CC1C (stereo not shown) [Compound 109]	50%

Same assay, conditions: Rattus norvegicus; oral, 50 mg/kg, 2.00 h; read-out: MES, animals protected/tested (converted)

Compound	responders at 50 mg/kg
COC(=O)C1C(=O)C=C(NCc2ccc(F)cc2)CC1C (stereo not shown) [Compound 21]	50%
COC(=O)C1C(=O)C=C(NCCc2ccccc2)CC1C (stereo not shown) [Compound 109]	25%

Same assay, conditions: Rattus norvegicus; oral, 50 mg/kg, 4.00 h; read-out: MES, animals protected/tested (converted)

Compound	responders at 50 mg/kg
COC(=O)C1C(=O)C=C(NCc2ccc(F)cc2)CC1C (stereo not shown) [Compound 21]	75%
COC(=O)C1C(=O)C=C(NCCc2ccccc2)CC1C (stereo not shown) [Compound 109]	25%

Test system: Maximal electroshock seizures
Assay: MES maximal electroshock seizure test, mice ip
Assay type: in vivo
Settings: Mus musculus, ip, 0.5 h, 100 mg/kg, 30 min; read-out: MES, animals protected/tested (converted)
Protocol: Three tests were performed:
1. MES--Electroshock Seizure Test
as §2

Compound	responders at 100 mg/kg
COC(=O)C1C(=O)C=C(NCCc2ccccc2)CC1C (stereo not shown) [Compound 109]	66.7%

Same assay, conditions: Mus musculus, ip, 0.5 h, 300 mg/kg, 30 min; read-out: MES, animals protected/tested

Compound	responders at 300 mg/kg
COC(=O)C1C(=O)C=C(NCc2ccc(F)cc2)CC1C (stereo not shown) [Compound 21]	0%
COC(=O)C1C(=O)C=C(NCCc2ccccc2)CC1C (stereo not shown) [Compound 109]	100%

Same assay, conditions: Mus musculus, ip, 4 h, 100 mg/kg, 4 h; read-out: MES, animals protected/tested (converted)

Compound	responders at 100 mg/kg
COC(=O)C1C(=O)C=C(NCCc2ccccc2)CC1C (stereo not shown) [Compound 109]	0%

Same assay, conditions: Mus musculus, ip, 4 h, 300 mg/kg, 4 h; read-out: MES, animals protected/tested

Compound	responders at 300 mg/kg
COC(=O)C1C(=O)C=C(NCc2ccc(F)cc2)CC1C (stereo not shown) [Compound 21]	100%
COC(=O)C1C(=O)C=C(NCCc2ccccc2)CC1C (stereo not shown) [Compound 109]	0%

Same assay, conditions: substituted benzylamines

Compound	activity in Phase II evaluation
COC(=O)C1C(=O)C=C(NCc2ccc(F)cc2)CC1C (stereo not shown) [Compound 21]	significant activity

— patent US5616615A, “Enaminone esters” (priority 1995, dated 1997)
